# Where two headings read alike, the source gives them in different places.
# What was measured:
# [1] = From the text: Theobromine has relatively strong intermolecular hydrogen bonding between its carbonyl groups and strong π–π stacking interactions. In theophylline, the hydrogen between the two carbonyl groups is replaced by a methyl group, causing the previously mentioned interactions to be weaker. […] Adding alkyl groups to ILs usually lowers their solubility. […] The overall poor solubility of purines is connected to their inter-base hydrogen bonding. The insertion of the methyl groups replaces protons that would otherwise be available to form inter-base hydrogen bonds.
# [2] = TGA, nitrogen, 2 K·min^−1, peak of the derivative
# Protocol: The melting temperatures (Tm) were measured in a differential scanning calorimetry (DSC), using a Hitachi DSC7000X equipment at atmospheric pressure, with hermetically sealed aluminum crucibles and a constant flow of nitrogen. […] Each sample underwent three cycles of cooling and heating, at 5 K∙min^−1 and 2 K∙min^−1, respectively. The melting point of each compound was taken as the peak temperature. The determined melting points are estimated to have a 1 K uncertainty. […] Each sample was heated in an aluminia pan, under a nitrogen atmosphere, with a heating rate of 2 K·min^−1. The degradation temperature-associated uncertainty is estimated to be 0.01 K. Degradation temperature was taken as the peak temperature of the derivative.
# [3] = for Aqueous solubility enhancement (S/S0) of the salt relative to its free purine: S molar water-solubility of salt at 298 K, S0 of free purine from PubChem; for Molar water-solubility (S): pure water, 72 h, shake-flask; for Molar water-solubility (S) / pH saturated (pH of the saturated IL solution): (298 ± 1) K; for pH saturated (pH of the saturated IL solution): saturated aqueous solution
# Protocol: IL solubility studies were performed using the isothermal shake-flask method, as reported in the literature. […] If needed, samples were centrifuged for 2 min at 12,000 rpm. Samples of the liquid phase were collected and diluted in distilled water, followed by the preparation of a calibration curve for each compound of interest. The amount of compound in the liquid phase was quantified using a UV–Vis Synergy HT microplate reader from BioTek (Winooski, VT, USA). […] All assays were performed in triplicate. The pH (±0.02) of the samples was determined by using a Mettler Toledo SevenMultiTMdual pH meter.
# [4] = remark: listed apart in the source
# Protocol: Samples were quantified, as previously described, at 316 nm (see Figure S1). All assays were performed in triplicates. To verify the integrity of the IL, the liquid phase was analyzed by ^1H and ^13C NMR.
# Raphidocelis subcapitata = conditions: for Acute hazard category according to European legislation: based on 96 h EC50 in mg∙L^−1; for EC50: 96 h incubation, microalgae yield, 95% confidence limits in parenthesis
# Protocol: The microalgae ecotoxicity assays were conducted, as previously described in detail, using the microalgae Raphidocelis subcapitata, i.e., following the guidelines of OECD [38], and adapted to the use of 24-well microplates. […] The microalgae were exposed to a range of concentrations of each salt, and all the assays, including the MBL blank control, were conducted in triplicate. The microplates were incubated for 96 h, under controlled incubation conditions, as used for the inoculum. After that time, the microalgae yield in each treatment was calculated as the difference between the cell densities at the end and beginning of the test.
# [5] = cited from earlier work
# [6] = IL solution 0.05 mol∙L-1 before addition of ferulic acid
# [7] = IL solution 0.05 mol∙L-1 saturated with ferulic acid
# [8] = IL solution 0.1 mol∙L-1 before addition of ferulic acid
# [9] = IL solution 0.1 mol∙L-1 saturated with ferulic acid
# [10] = IL solution 0.25 mol∙L-1 before addition of ferulic acid
# [11] = IL solution 0.25 mol∙L-1 saturated with ferulic acid
# [12] = IL solution 0.5 mol∙L-1 before addition of ferulic acid
# [13] = IL solution 0.5 mol∙L-1 saturated with ferulic acid
# [14] = IL solution 1.0 mol∙L-1 before addition of ferulic acid
# [15] = IL solution 1.0 mol∙L-1 saturated with ferulic acid
# [16] = IL solution 1.5 mol∙L-1 before addition of ferulic acid
# [17] = IL solution 1.5 mol∙L-1 saturated with ferulic acid
SMILES,Decomposition temperature (Td) [2],Molar water-solubility (S) [3],pH saturated (pH of the saturated IL solution) [3],"Initial solution pH [4, 6]","Saturated solution pH [4, 7]","Initial solution pH [4, 8]","Saturated solution pH [4, 9]","Initial solution pH [4, 10]","Saturated solution pH [4, 11]","Initial solution pH [4, 12]","Saturated solution pH [4, 13]",further results
Cn1c(=O)c2[n-]cnc2n(C)c1=O.[Na+] [sodium theophyllinate],,,,,,,,,,,,Molar solubility of sodium theophyllinate in pure water (S0) [1]: 0.26 ± 0.01 mol/L; pH saturated ([1]; [N4444]Cl 1.0 mol∙L-1 solution saturated with sodium theophyllinate): 10.55
"CCCC[N+](CCCC)(CCCC)CCCC.Cn1cnc2c1c(=O)[n-]c(=O)n2C [[N4444][Theob], Tetrabutylammonium theobrominate]",457 ± 1 K,1.59 ± 0.07 mol/L,12.76,10.85,5.36,11.56,5.54,11.80,8.51,11.98,9.62,"Aqueous solubility enhancement (S/S0) of the salt relative to its free purine [3]: 870 fold; S/S0 of ferulic acid recalculated with S0 at a similar pH to that of the sample ([4]; all tested IL concentrations, 303 K): < 1"
"CCCC[N+](CCCC)(CCCC)CCCC.[Cl-] [[N4444]Cl, tetrabutylammonium chloride, reference compound]",,,,5.71,3.29,6.31,2.89,5.62,2.63,4.26,2.36,"pH initial ([1]; initial aqueous solution of [N4444]Cl 1.0 mol∙L-1): 4.23; Acute hazard category according to European legislation (Raphidocelis subcapitata): acute 2 (acute 2 category (1 < EC50 < 10 mg∙L^−1)); Initial solution pH [4, 14]: 4.04; Saturated solution pH [4, 15]: 2.10; Initial solution pH [4, 16]: 4.20; Saturated solution pH [4, 17]: 2.26"
"CCCC[N+](CCCC)(CCCC)CCCC.O=c1[nH]c(=O)c2[n-]cnc2[nH]1 [[N4444][Xan], Tetrabutylammonium xanthinate]",495 ± 1 K,0.17 ± 0.01 mol/L,10.14,,,,,,,,,EC50 (Raphidocelis subcapitata): 0.8 mg/L; Acute hazard category according to European legislation (Raphidocelis subcapitata): acute 1 (acute 1 category (EC50 < 1 mg∙L^−1))
O=c1[nH]c(=O)c2[nH]c(=O)[nH]c2[nH]1 [uric acid],,,,,,,,,,,,"Molar water-solubility of the free purine (S0) ([5]; (293 ± 1) K, ref PubChem [53]): 357 µM"
O=c1[nH]c(=O)c2[nH]c([O-])nc2[nH]1.[Na+] [sodium urate],,,,,,,,,,,,Water-solubility of other urate salts [5]: 6.76 mM
O.O=c1[nH]c2nc([O-])nc([O-])c2[nH]1.[K+].[K+] [potassium urate],,,,,,,,,,,,Water-solubility of other urate salts [5]: 12.06 mM
"CCCC[N+](CCCC)(CCCC)CCCC.O=c1[n-]c2[nH]c(=O)[nH]c2c(=O)[nH]1 [[N4444][Ur], Tetrabutylammonium urate]",505 ± 1 K,0.096 ± 0.007 mol/L,8.31,,,,,,,,,EC50 (Raphidocelis subcapitata): 2.7 mg/L
"CCCC[N+](CCCC)(CCCC)CCCC.Cn1c(=O)c2[n-]cnc2n(C)c1=O [[N4444][Theop], Tetrabutylammonium theophyllinate]",486 ± 1 K,2.2 ± 0.1 mol/L,10.89,8.91,5.30,10.52,6.44,10.81,6.56,10.78,7.65,"Aqueous solubility enhancement (S/S0) of the salt relative to its free purine [3]: 53 fold; Initial solution pH [4, 14]: 11.06; Saturated solution pH [4, 15]: 8.63; Initial solution pH [4, 16]: 10.68; Saturated solution pH [4, 17]: 9.95"

# From publication PMC8620494, “Synthesis of Purine-Based Ionic Liquids and Their Applications” (Molecules, 2021)
